Earlier results on one substance are cited in publication PMC7385171, “Molecular engineering of safe and efficacious oral basal insulin” (Nature Communications, 2020).

For the data set the following is noted: man, 8-week study; oral for the analogue, SC for insulin glargine.

With insulin glargine, the “coefficient of variation of fasting plasma glucose” value was 17.5%.
